# Source: patent publication US10167262B2, “Herbicidal substituted 3-arylpyrazoles” (FMC CORPORATION, priority 2014, dated 2019)
# Columns and labels:
# Assay type in all cases: in vivo
# [1] = system: waterhemp_RES2, (ALS & HPPD resistant common waterhemp, Amaranthus rudis); test: Test E postemergence greenhouse test, plant response rating 0-100; settings: scale 0 to 100
# Experimental: At the same time, plants from these crop and weed species and also waterhemp_RES1, (ALS & Triazine resistant common waterhemp, Amaranthus rudis), and waterhemp_RES2, (ALS & HPPD resistant common waterhemp, Amaranthus rudis) were planted in pots containing Redi-Earth® planting medium (Scotts Company, 14111 Scottslawn Road, Marysville, Ohio 43041) comprising spaghnum peat moss, vermiculite, wetting agent and starter nutrients were treated with postemergence applications of test chemicals formulated in the same manner. Plants ranged in height from 2 to 18 cm for postemergence treatments (1- to 4-leaf stage).
# Treated plants and controls were maintained in a greenhouse for 14 to 21 days, after which time all species were compared to controls and visually evaluated. Plant response ratings, summarized in Table E, are based on a scale of 0 to 100 where 0 is no effect and 100 is complete control. A dash (-) response means no test result.
# [2] = system: arrowleaf sida (Sida rhombifolia); test: Test E pre-/postemergence greenhouse test, plant response rating 0-100; settings: for Arrowleaf Sida plant response rating: Preemergence
# Procedure, shortened: (§1)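 Visual control score, 0–100 relative to untreated plants, recorded 14–21 days after spraying. Treatments: preemergence on silt loam seedbeds and postemergence at the 1- to 4-leaf stage, with compound in surfactant-containing solvent.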
# [3] = system: palmer pigweed (Amaranthus palmeri); test: as above; settings: scale 0 to 100; for Pigweed, Palmer plant response rating: Preemergence
# Procedure, shortened: as §1
# [4] = system: downy bromegrass (Bromus tectorum); test: Test C postemergence greenhouse test, plant response rating 0-100
# Procedure, shortened: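 Response is a visual 0–100 control rating taken 13 to 15 days post-treatment, with a dash marking no result. Plants ranged 2 to 18 cm when treated postemergence.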
# [5] = system: oilseed rape (Brassica napus); test: Test C pre-/postemergence greenhouse test, plant response rating 0-100
# Procedure, shortened: (§2)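 After treatment, pots stay in the greenhouse 13–15 days before each species is compared with untreated controls and given a 0–100 visual score. Preemergence seeds are in loam blended with sand; postemergence plants, 1–4 leaves, are in peat-based medium.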
# [6] = system: barnyardgrass (Echinochloa crus-galli); test: as above
# Procedure, shortened: as §2
# [7] = system: waterhemp (common waterhemp, Amaranthus rudis); test: as above
# Procedure, shortened: as §2
# [8] = Postemergence, 31 g ai/ha, scale 0 to 100
# [9] = Postemergence, 62 g ai/ha, scale 0 to 100
# [10] = Postemergence, 125 g ai/ha, scale 0 to 100
# [11] = Postemergence, 250 g ai/ha, scale 0 to 100
# [12] = Sida rhombifolia, post-emergence, Postemergence, 16 g ai/ha, scale 0 to 100
# [13] = Sida rhombifolia, post-emergence, Postemergence, 31 g ai/ha, scale 0 to 100
# [14] = Sida rhombifolia, post-emergence, Postemergence, 62 g ai/ha, scale 0 to 100
# [15] = Sida rhombifolia, post-emergence, Postemergence, 125 g ai/ha, scale 0 to 100
# [16] = Amaranthus palmeri, post-emergence, Postemergence, 62 g ai/ha
# [17] = Amaranthus palmeri, post-emergence, Postemergence, 125 g ai/ha
smiles,measurement,setting,value
ON=C(c1ccccc1)c1c[nH]nc1-c1cc(Cl)cc(Cl)c1 [Compound 50],"Plant response rating, Waterhemp_RES2",[1]; 31 g ai/ha,75
same,"Plant response rating, Waterhemp_RES2",[1]; 125 g ai/ha,100
same,"Plant response rating, Waterhemp_RES2",[1]; 250 g ai/ha,100
same,"Plant response rating, Waterhemp_RES2",[1]; 500 g ai/ha,100
same,"Plant response rating, Arrowleaf Sida",[2]; [8],50
same,"Plant response rating, Arrowleaf Sida",[2]; [9],50
same,"Plant response rating, Arrowleaf Sida",[2]; [10],60
same,"Plant response rating, Arrowleaf Sida",[2]; [11],70
same,"Plant response rating, Arrowleaf Sida","[2]; Postemergence, 500 g ai/ha, scale 0 to 100 (0 no effect, 100 complete control)",80
same,"Plant response rating, Pigweed, Palmer","[3]; Postemergence, 31 g ai/ha",65
same,"Plant response rating, Pigweed, Palmer","[3]; Postemergence, 62 g ai/ha",75
same,"Plant response rating, Pigweed, Palmer","[3]; Postemergence, 125 g ai/ha",80
same,"Plant response rating, Pigweed, Palmer","[3]; Postemergence, 250 g ai/ha",98
same,"Plant response rating, Pigweed, Palmer","[3]; Postemergence, 500 g ai/ha",98
same,"Plant response rating (0 to 100), Bromegrass, Downy",[4]; 31 g ai/ha,0
same,"Plant response rating (0 to 100), Bromegrass, Downy",[4]; 62 g ai/ha,0
same,"Plant response rating (0 to 100), Bromegrass, Downy",[4]; 125 g ai/ha,0
same,"Plant response rating, Bromegrass, Downy","[4]; 250 g ai/ha, scale 0 to 100",0
"Clc1cc(Cl)cc(-c2n[nH]cc2C(=NN2CCCC2)c2ccccc2)c1 [Compound 30, N-[[3-(3,5-dichlorophenyl)-1H-pyrazol-4-yl]phenylmethylene]-1-pyrrolidinamine]","Plant response rating, Oilseed Rape","[5]; Preemergence, 62 g ai/ha",50
same,"Plant response rating, Oilseed Rape","[5]; Preemergence, 125 g ai/ha",80
same,"Plant response rating, Oilseed Rape","[5]; Preemergence, 250 g ai/ha",85
same,"Plant response rating, Oilseed Rape","[5]; Preemergence, 500 g ai/ha",100
same,"Plant response rating, Barnyardgrass","[6]; Preemergence, 62 g ai/ha",0
same,"Plant response rating, Barnyardgrass","[6]; Preemergence, 125 g ai/ha",0
same,"Plant response rating, Barnyardgrass","[6]; Preemergence, 250 g ai/ha",0
same,"Plant response rating, Barnyardgrass","[6]; Preemergence, 500 g ai/ha",0
same,"Plant response rating, Waterhemp","[7]; Preemergence, 62 g ai/ha",100
same,"Plant response rating, Waterhemp","[7]; Preemergence, 125 g ai/ha",100
same,"Plant response rating, Waterhemp","[7]; Preemergence, 250 g ai/ha",100
same,"Plant response rating, Waterhemp","[7]; Preemergence, 500 g ai/ha",100
same,pest or weed control at 16 g/ha,[2]; [12],50%
same,pest or weed control at 31 g/ha,[2]; [13],50%
same,pest or weed control at 62 g/ha,[2]; [14],70%
same,pest or weed control at 125 g/ha,[2]; [15],80%
same,pest or weed control at 250 g/ha,"[2]; Sida rhombifolia, post-emergence, Postemergence, 250 g ai/ha, scale 0 to 100",80%
same,pest or weed control at 31 g/ha,"[3]; Amaranthus palmeri, post-emergence, Postemergence, 31 g ai/ha",40%
same,pest or weed control at 62 g/ha,[3]; [16],100%
same,pest or weed control at 125 g/ha,[3]; [17],100%
same,pest or weed control at 250 g/ha,"[3]; Amaranthus palmeri, post-emergence, Postemergence, 250 g ai/ha",100%
same,"Plant response rating (0 to 100), Bromegrass, Downy",[4]; 31 g ai/ha,0
same,"Plant response rating (0 to 100), Bromegrass, Downy",[4]; 62 g ai/ha,0
same,"Plant response rating, Bromegrass, Downy","[4]; 125 g ai/ha, scale 0 to 100",0
same,"Plant response rating, Bromegrass, Downy","[4]; 250 g ai/ha, scale 0 to 100",0
O=C(c1cncc(F)c1)c1c[nH]nc1-c1cc(Cl)cc(Cl)c1 [Compound 19],"Plant response rating (0 to 100), Oilseed Rape","[5]; Postemergence, 62 g ai/ha",0
same,"Plant response rating (0 to 100), Oilseed Rape","[5]; Postemergence, 125 g ai/ha",0
same,"Plant response rating, Oilseed Rape",[5]; [11],5
same,"Plant response rating, Oilseed Rape","[5]; Preemergence, 31 g ai/ha",0
same,"Plant response rating, Oilseed Rape","[5]; Preemergence, 62 g ai/ha",0
same,"Plant response rating, Oilseed Rape","[5]; Preemergence, 125 g ai/ha",80
same,"Plant response rating, Oilseed Rape","[5]; Preemergence, 250 g ai/ha",80
same,"Plant response rating (0 to 100), Barnyardgrass","[6]; Postemergence, 31 g ai/ha",0
same,"Plant response rating (0 to 100), Barnyardgrass","[6]; Postemergence, 62 g ai/ha",0
same,"Plant response rating, Barnyardgrass",[6]; [10],0
same,"Plant response rating, Barnyardgrass",[6]; [11],0
same,"Plant response rating, Barnyardgrass","[6]; Preemergence, 31 g ai/ha",0
same,"Plant response rating, Barnyardgrass","[6]; Preemergence, 62 g ai/ha",0
same,"Plant response rating, Barnyardgrass","[6]; Preemergence, 125 g ai/ha",0
same,"Plant response rating, Barnyardgrass","[6]; Preemergence, 250 g ai/ha",0
same,"Plant response rating (0 to 100), Waterhemp","[7]; Postemergence, 62 g ai/ha",65
same,"Plant response rating (0 to 100), Waterhemp","[7]; Postemergence, 125 g ai/ha",80
same,"Plant response rating, Waterhemp",[7]; [11],95
same,"Plant response rating, Waterhemp","[7]; Preemergence, 62 g ai/ha",100
same,"Plant response rating, Waterhemp","[7]; Preemergence, 125 g ai/ha",100
same,"Plant response rating, Waterhemp","[7]; Preemergence, 250 g ai/ha",100
C=CCn1cc(C(=O)c2ccccc2)c(-c2cc(Cl)cc(Cl)c2)n1 [Compound 60],"Plant response rating, Waterhemp_RES2",[1]; 62 g ai/ha,20
same,"Plant response rating, Waterhemp_RES2",[1]; 125 g ai/ha,20
same,"Plant response rating, Waterhemp_RES2",[1]; 250 g ai/ha,25
same,"Plant response rating, Arrowleaf Sida","[2]; Postemergence, 16 g ai/ha, scale 0 to 100",25
same,"Plant response rating, Arrowleaf Sida",[2]; [8],35
same,"Plant response rating, Arrowleaf Sida",[2]; [9],35
same,"Plant response rating, Arrowleaf Sida",[2]; [10],45
same,"Plant response rating, Arrowleaf Sida",[2]; [11],45
same,"Plant response rating, Pigweed, Palmer","[3]; Postemergence, 62 g ai/ha",30
same,"Plant response rating, Pigweed, Palmer","[3]; Postemergence, 125 g ai/ha",35
same,"Plant response rating, Pigweed, Palmer","[3]; Postemergence, 250 g ai/ha",35
same,"Plant response rating (0 to 100), Bromegrass, Downy",[4]; 31 g ai/ha,0
same,"Plant response rating (0 to 100), Bromegrass, Downy",[4]; 62 g ai/ha,0
same,"Plant response rating (0 to 100), Bromegrass, Downy",[4]; 125 g ai/ha,0
same,"Plant response rating, Bromegrass, Downy","[4]; 250 g ai/ha, scale 0 to 100",0
"CCn1cc(C(=O)c2ccccc2)c(-c2cc(Cl)cc(Cl)c2)n1 [Compound 31, [3-(3,5-dichlorophenyl)-1-ethyl-1H-pyrazol-4-yl]phenylmethanone]",Arrowleaf Sida plant response rating,"[2]; 62 g ai/ha, scale 0 to 100",30
same,Arrowleaf Sida plant response rating,"[2]; 125 g ai/ha, scale 0 to 100",80
same,Arrowleaf Sida plant response rating,"[2]; 250 g ai/ha, scale 0 to 100",90
same,Arrowleaf Sida plant response rating,"[2]; 500 g ai/ha, scale 0 to 100",95
same,pest or weed control at 16 g/ha,[2]; [12],55%
same,pest or weed control at 31 g/ha,[2]; [13],65%
same,pest or weed control at 62 g/ha,[2]; [14],80%
same,pest or weed control at 125 g/ha,[2]; [15],90%
same,pest or weed control at 62 g/ha,[3]; [16],60%
same,pest or weed control at 125 g/ha,[3]; [17],75%
same,"Pigweed, Palmer plant response rating",[3]; 62 g ai/ha,0
same,"Pigweed, Palmer plant response rating",[3]; 125 g ai/ha,70
same,"Pigweed, Palmer plant response rating",[3]; 250 g ai/ha,98
same,"Pigweed, Palmer plant response rating",[3]; 500 g ai/ha,100
same,"Plant response rating, Bromegrass, Downy",[4]; 16 g ai/ha,0
same,"Plant response rating (0 to 100), Bromegrass, Downy",[4]; 31 g ai/ha,0
same,"Plant response rating (0 to 100), Bromegrass, Downy",[4]; 62 g ai/ha,0
same,"Plant response rating (0 to 100), Bromegrass, Downy",[4]; 125 g ai/ha,0
CCn1cc(C(=NN2CCCC2)c2ccccc2)c(-c2cc(Cl)cc(Cl)c2)n1 [Compound 37],"Plant response rating (0 to 100), Bromegrass, Downy",[4]; 31 g ai/ha,0
same,"Plant response rating (0 to 100), Bromegrass, Downy",[4]; 62 g ai/ha,0
same,"Plant response rating (0 to 100), Bromegrass, Downy",[4]; 125 g ai/ha,0
same,"Plant response rating, Bromegrass, Downy","[4]; 250 g ai/ha, scale 0 to 100",0
